Ten compounds from patent publication EP2311457A1, “Pharmaceutical compositions for treating infections with drug resistant mycobacteria” (priority 2009, dated 2011) can be followed below.

≈ marks a conversion by molar mass, not a printed value.

The first data set concerns Mtb H37Rv ATCC 272945. Briefly: Drug susceptibility testing, radiometric MIC determination (BACTEC 460TB). Particulars: Mycobacterium tuberculosis, ATCC272945|H37RV, read-out: minimal inhibitory concentrations.
Method: Drug susceptibility testing (DST) was performed with the broth-based radiometric BACTEC 460TB system (Becton Dickinson Diagnostic Systems, Sparks, MD) which is considered the laboratory "gold standard". The standard protocol for DST and determination of MICs was strictly followed as recommended by the manufacturers.
As for `C(=NNc1nncc2ccccc12)c1ccc(OCc2ccccc2)cn1` [PH22-6, 5-benzyloxypyridine-2-aldehyde-1'-phthalazinylhydrazone], the MIC is 5 µg/mL (≈ 14.1 µM).

With `Cc1ccc(C=NNc2ccc3ccccc3n2)nc1` [PH22-14, 5-methylpyridine-2-aldehyde-2'-quinolylhydrazone], the MIC stood at 0.5 µg/mL (≈ 1.91 µM).

Regarding `c1ccc(C(=NNc2ccc3ccccc3n2)c2ccccn2)cc1` [PH22-15, 2-benzoylpyridine-2'-quinolylhydrazone], the MIC came to 0.25 µg/mL (≈ 0.771 µM).

On to `Cc1ccc(C=NNc2nncc3ccccc23)nc1` [PH22-16, 5-methyl-pyridine-2-aldehyde-1'-phthalazinylhydrazone], for which the MIC is less than 1 µg/mL.

In the case of `c1ccc(C(=NNc2nncc3ccccc23)c2ccccn2)cc1` [PH22-22, 2-benzoylpyridine-1'-phthalazinylhydrazone], the MIC is 5 µg/mL (≈ 15.4 µM).

On to `Cc1cccc(NN=Cc2ccccn2)n1` [PH22-31, pyridine-2-aldehyde-6'-methyl-2'-pyridylhydrazone], for which the MIC was less than 1 µg/mL.

Consider `CCc1ccc(C=NNc2cc(OC)ncn2)nc1` [PH22-33, 5-ethylpyridine-2-aldehyde-6'-methoxy-4'-pyrimidylhydrazone], for which the MIC is less than 0.125 µg/mL.

As to `C(=NNc1ccccn1)c1ccc(OCc2ccccc2)cn1` [PH22-49, 5-benzyloxypyridine-2-aldehyde-2'-pyridylhydrazone], the MIC was determined as 5 µg/mL (≈ 16.4 µM).

Regarding `Clc1ccc(NN=Cc2ccc(OCc3ccccc3)cn2)nn1` [PH22-51, 5-benzyloxypyridine-2-aldehyde-6'-chloro-3'-pyridazinylhydrazone], the MIC amounted to 1 µg/mL (≈ 2.94 µM).

Take `C(=NNc1ncnc2ccccc12)c1ccc(OCc2ccccc2)cn1` [PH22-52, 5-benzyloxypyridine-2-aldehyde-4'-quinazolinylhydrazone]: the MIC lay within 1 to 5 µg/mL (≈ 2.81 to 14.1 µM).

In the next data set the test system is Murine bone marrow derived macrophages.
Assay: not given
Settings: not given
Regarding `CCc1ccc(C=NNc2cc(OC)ncn2)nc1` [PH22-33, 5-ethylpyridine-2-aldehyde-6'-methoxy-4'-pyrimidylhydrazone], the “toxicity as measured by MTT assay” value is “No toxicity was observed”.
